11 molecules from patent US20230082430A1 (C4 Therapeutics, Inc., priority 2019, published 2023) can be followed below.

In the assay the test system is NCIH929.1 cells. Briefly: Cell viability assay for Table 2 (CellTiter-Glo 2.0, ATP quantification, 96 hr). It is filed as cell-based. To be noted: 96 h, NCIH929.1 cell viability, 96 hr, top concentration 1 μM, 14 points half log titration; read-out: IC50. The source says: Cell Viability Assay for Table 2
CellTiter-Glo® 2.0 Assay was purchased from Promega (Madison, Wis., USA). NCIH929.1 cell line was purchased from ATCC (Manassas, Va., USA). Cell culture flasks and 384-well microplates were acquired from VWR (Radnor, Pa., USA).
A general note: ATP-based viability assays read luminescence as a measure of living cells.
Regarding `CC1(C(=O)N2CCC(n3cc(C(N)c4ccc5c6c(cccc46)C(=O)N5C4CCC(=O)NC4=O)cn3)CC2)CCC1` (centres unmarked) [Compound 153, 3-(6-(amino(1-(1-(1-methylcyclobutane-1-carbonyl)piperidin-4-yl)-1H-pyrazol-4-yl)methyl)-2-oxobenzo[cd]indol-1(2H)-yl)piperidine-2,6-dione], the IC50 is less than 1 nM.

For `CC(C)(C)OC(=O)N1CCC(n2cc(C(N)c3ccc4c5c(cccc35)C(=O)N4C3CCC(=O)NC3=O)cn2)CC1` (centres unmarked) [Compound 154, tert-butyl 4-(4-(amino(1-(2,6-dioxopiperidin-3-yl)-2-oxo-1,2-dihydrobenzo[cd]indol-6-yl)methyl)-1H-pyrazol-1-yl)piperidine-1-carboxylate], the IC50 is less than 1 nM.

As for `O=C1CCC(N2C(=O)c3cccc4c(Cc5ccc(CN6CCc7ccccc7C6)cc5)ccc2c34)C(=O)N1` (centres unmarked) [Compound 155, 3-[6-[[4-(3,4-dihydro-1H-isoquinolin-2-ylmethyl)phenyl]methyl]-2-oxo-benzo[cd]indol-1-yl]piperidine-2,6-dione], the IC50 is less than 1 nM.

For `O=C1CCC(N2C(=O)c3cccc4c(Cc5ccc(CN6C7CCC6COC7)cc5)ccc2c34)C(=O)N1` (centres unmarked) [Compound 156, 3-[6-[[4-(3-oxa-8-azabicyclo[3.2.1]octan-8-ylmethyl)phenyl]methyl]-2-oxo-benzo[cd]indol-1-yl]piperidine-2,6-dione], the IC50 was less than 1 nM.

Regarding `O=C1CCC(N2C(=O)c3cccc4c(Cc5ccc(CN6CCC(Cc7ccc(F)cc7)CC6)cc5)ccc2c34)C(=O)N1` (centres unmarked) [Compound 157, 3-[6-[[4-[[4-[(4-fluorophenyl)methyl]-1-piperidyl]methyl]phenyl]methyl]-2-oxo-benzo[cd]indol-1-yl]piperidine-2,6-dione], the IC50 was less than 1 nM.

For `CC(C)(C)C1CCN(Cc2ccc(Cc3ccc4c5c(cccc35)C(=O)N4C3CCC(=O)NC3=O)cc2)CC1` (centres unmarked) [Compound 158, 3-[6-[[4-[(4-tert-butyl-1-piperidyl)methyl]phenyl]methyl]-2-oxo-benzo[cd]indol-1-yl]piperidine-2,6-dione], the IC50 was less than 1 nM.

For the molecule `O=C1CCC(N2C(=O)c3cccc4c(Cc5ccc(CN6CCN(CC(F)(F)F)CC6)cc5)ccc2c34)C(=O)N1` (centres unmarked) [Compound 161, 3-(2-Oxo-6-{4-[4-(2,2,2-trifluoro-ethyl)-piperazin-1-ylmethyl]-benzyl}-2H-benzo[cd]indol-1-yl)-piperidine-2,6-dione], the IC50 is less than 1 nM.

For `O=C1CCC(N2C(=O)c3cccc4c(Cc5cnn(C6CCCCC6)c5)ccc2c34)C(=O)N1` (centres unmarked) [Compound 162, 3-[6-[(1-cyclohexylpyrazol-4-yl)methyl]-2-oxo-benzo[cd]indol-1-yl]piperidine-2,6-dione], the IC50 is less than 1 nM.

With `CC1(C(=O)N2CCC(n3cc(C4(c5ccc6c7c(cccc57)C(=O)N6C5CCC(=O)NC5=O)CC4)cn3)CC2)CCC1` (centres unmarked) [Compound 163, 3-[6-[1-[1-[1-(1-methylcyclobutanecarbonyl)-4-piperidyl]pyrazol-4-yl]cyclopropyl]-2-oxo-benzo[cd]indol-1-yl]piperidine-2,6-dione], the IC50 is less than 1 nM.

Regarding `CC1(CN2CCC(n3cc(C4(c5ccc6c7c(cccc57)C(=O)N6C5CCC(=O)NC5=O)CC4)cn3)CC2)CCC1` (centres unmarked) [Compound 164, 3-[6-[1-[1-[1-[(1-methylcyclobutyl)methyl]-4-piperidyl]pyrazol-4-yl]cyclopropyl]-2-oxo-benzo[cd]indol-1-yl]piperidine-2,6-dione], the IC50 is less than 100 nM.

`CN(c1ccc(Cc2ccc3c4c(cccc24)C(=O)N3C2CCC(=O)NC2=O)cc1)C1CCN(c2ccc(C#N)cc2F)CC1` (centres unmarked) [Compound 165, 4-[4-[4-[[1-(2,6-dioxo-3-piperidyl)-2-oxo-benzo[cd]indol-6-yl]methyl]-N-methyl-anilino]-1-piperidyl]-3-fluoro-benzonitrile]: the IC50 is less than 1 nM.

The IC50 is the concentration needed to halve the response being measured.
